From patent US9688627B2, “Lactam compounds as EP4 receptor-selective agonists for use in the treatment of EP4-mediated diseases and conditions” (Cayman Chemical Company, Inc., priority 2013, dated 2017)

Columns and labels:
[1] = target: T1, rat EP4 receptor (Rattus norvegicus, UniProt P43114); assay: SEAP activity assay on EP4 STEP plate; format: cell-based; details: SEAP luminescence, 6-8 hours of stimulation; read-out: STEP cell functional assay EC50 SEAP/EP4
T1 construct: cells seeded on STEP plates
Text: (§1) 2. […] In addition each concentration had triplicates. […] 4. […] Cover the plate with the lid. […] 6. […] 7. […] 8.

[2] = target: T2, rat EP2 receptor (Rattus norvegicus, UniProt Q62928); assay: SEAP activity assay on EP2 STEP plate; format: cell-based; details: SEAP luminescence, 6-8 hours of stimulation; read-out: STEP cell functional assay EC50 SEAP/EP2
T2 construct: cells seeded on STEP plates
Text: as §1

[3] = target: T3, Human Prostanoid EP4 Receptor (Homo sapiens, UniProt P35408); assay: Radioligand binding assay, agonist site of human prostanoid EP4 receptor in transfected HEK-293 cells; details: for inhibition at 0.1 µM: 2 h, pH 6, read-out: hEP4 receptor binding, % @ 100 nM, @ 100 nM test compound; for IC50: read-out: hEP4 receptor binding IC50; for Ki: read-out: hEP4 receptor binding Ki
T3 construct: expressed in transfected cells; host or cells: HEK-293 cells (cell membrane homogenates)
Procedure: Radioligand Binding Assay for the Evaluation of the Affinity of Compounds for the Agonist Site of the Human Prostanoid EP4 Receptor in Transfected HEK-293 Cells
Following incubation, the samples are filtered rapidly under vacuum through glass fiber filters (GF/B, Packard) presoaked with 0.3% PEI and rinsed several times with ice-cold 50 mM Tris-HCl using a 96-sample cell harvester (Unifilter, Packard). The filters are dried then counted for radioactivity in a scintillation counter (Topcount, Packard) using a scintillation cocktail (Microscint 0, Packard).

[4] = target: T1, rat EP4 receptor; assay: cAMP level assay on EP4 STEP plate; format: cell-based; details: cAMP by ELISA, 30 minutes, 500 μM IBMX; read-out: STEP cell functional assay EC50 cAMP/EP4
Text: Functional Cellular Assays (STEP Plate Format)
Procedure of cAMP Assay for EP2/EP4 Agonist
3. […] In addition each concentration had triplicates.
6. Aspirate the supernatant.

[5] = test system: calvarial bone defect; assay: Rat calvarial defect model; format: in vivo, female Sprague Dawley rats; details: 3 mg/ml in calcium phosphate cement/demineralized bone matrix, eight weeks, values only in FIG. 1
Procedure: The rat calvarial defect model is a widely used model through which the ability of a treatment agent to induce bone formation is assessed (Aghaloo et al., The effect of NELL1 and bone morphogenetic protein-2 on calvarial bone regeneration, J. Oral Maxillofac. Surg., 2010, 68, 300-308; Mark et al., Repair of calvarial nonunions by osteogenin, a bone-inductive protein, Plast. Reconstr. Surg., 1990, 86, 623-30). Bone defects are created by removal of bone from the cranium of female Sprague Dawley rats by a bone trephine (cranial defect). Cranial defects are 2.6 mm in diameter and the cranium approximately 1 mm thick. A matrix of approximately 2 mm thickness is applied to the defect. Thus the dosing volume for each defect is calculated as π*r^2*matrix thickness=3.14*1.3^2*2=10.61 μl and rounded to 11 μl for purposes of dose calculation. Example 2E is delivered set inside calcium phosphate cement that, after loading with drug and setting, is ground to a fine powder and suspended in demineralized bone matrix at a ratio of 1:8 (weight/volume). Example 2E is tested at one dose of 3 mg/ml with five rats in the test group. […] The area measured at eight weeks was compared to the area of the original defect and the degree of repair calculated by the following formula: (original area-current area)/original area*100 The mean repair for each group after eight weeks of treatment is shown in the FIG. 1.

T3 sequence (P35408 whole entry): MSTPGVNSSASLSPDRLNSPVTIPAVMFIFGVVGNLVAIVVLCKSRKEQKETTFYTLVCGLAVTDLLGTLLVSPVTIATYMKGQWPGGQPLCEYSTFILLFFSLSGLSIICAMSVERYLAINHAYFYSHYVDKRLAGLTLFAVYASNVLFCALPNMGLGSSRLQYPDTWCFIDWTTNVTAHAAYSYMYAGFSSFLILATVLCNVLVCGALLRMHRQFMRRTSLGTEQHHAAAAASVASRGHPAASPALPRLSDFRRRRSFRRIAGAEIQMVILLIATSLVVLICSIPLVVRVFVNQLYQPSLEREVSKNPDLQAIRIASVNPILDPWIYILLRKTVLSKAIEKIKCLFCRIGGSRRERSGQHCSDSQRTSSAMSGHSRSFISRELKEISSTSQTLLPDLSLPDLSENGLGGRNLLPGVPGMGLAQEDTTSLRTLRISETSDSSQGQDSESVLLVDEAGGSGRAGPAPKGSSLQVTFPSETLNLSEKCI
T2 sequence (Q62928 whole entry): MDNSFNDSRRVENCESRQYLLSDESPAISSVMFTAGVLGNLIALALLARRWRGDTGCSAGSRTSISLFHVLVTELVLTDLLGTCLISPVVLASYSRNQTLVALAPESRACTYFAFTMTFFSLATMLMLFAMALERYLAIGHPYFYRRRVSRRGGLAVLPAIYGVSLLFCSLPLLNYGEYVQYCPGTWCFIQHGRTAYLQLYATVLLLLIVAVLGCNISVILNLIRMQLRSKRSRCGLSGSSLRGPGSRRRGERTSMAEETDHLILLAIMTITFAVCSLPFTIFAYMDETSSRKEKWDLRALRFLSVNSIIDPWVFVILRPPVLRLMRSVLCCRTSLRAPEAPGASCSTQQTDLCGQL
T1 sequence (P43114 whole entry): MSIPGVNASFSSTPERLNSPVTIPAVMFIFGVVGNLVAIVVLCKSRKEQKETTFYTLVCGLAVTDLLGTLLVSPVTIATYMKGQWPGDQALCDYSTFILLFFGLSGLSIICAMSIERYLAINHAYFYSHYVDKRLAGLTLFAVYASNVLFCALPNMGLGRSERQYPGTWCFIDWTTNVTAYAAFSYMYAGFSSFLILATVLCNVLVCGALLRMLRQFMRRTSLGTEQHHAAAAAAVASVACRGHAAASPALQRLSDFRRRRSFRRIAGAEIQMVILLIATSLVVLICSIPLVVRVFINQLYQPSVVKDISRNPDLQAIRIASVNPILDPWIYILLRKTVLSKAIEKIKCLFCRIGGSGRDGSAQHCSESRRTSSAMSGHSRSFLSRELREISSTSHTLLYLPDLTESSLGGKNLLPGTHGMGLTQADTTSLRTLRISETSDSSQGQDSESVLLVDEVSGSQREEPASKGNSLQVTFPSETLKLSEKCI

Compound	EC50 [1]	EC50 [2]	inhibition at 0.1 µM [3]	IC50 [3]	Ki [3]	melting point	EC50 [4]	Healing of a calvarial bone defect [5]
CC#CCC(C)[C@H](O)/C=C/[C@H]1CCC(=O)N1CCCCCCC(=O)O (mixture of isomers) [Example 1C, 7-((2R)-2-((3S,4R/S,E)-3-hydroxy-4-methyloct-1-en-6-yn-1-yl)-5-oxopyrrolidin-1-yl)heptanoic acid]	0.67 nM	760 nM	86%	–	–	–	–	–
CC#CCC(C)[C@@H](O)/C=C/[C@H]1CCC(=O)N1CCCCCCC(=O)O (mixture of isomers) [Example 1D, 7-((2R)-2-((3R,4R/S,E)-3-hydroxy-4-methyloct-1-en-6-yn-1-yl)-5-oxopyrrolidin-1-yl)heptanoic acid]	4.82 nM	> 10000 nM	11%	–	–	–	–	–
CCC#CCC(C)[C@H](O)/C=C/[C@H]1CCC(=O)N1CCCCCCC(=O)O (mixture of isomers) [Example 2C, 7-((2R)-2-((3S,4R/S,E)-3-hydroxy-4-methylnon-1-en-6-yn-1-yl)-5-oxopyrrolidin-1-yl)heptanoic acid]	0.064 nM	905 nM	–	4 nM	1.5 nM	–	–	–
CC#CCC(C)[C@H](O)/C=C/[C@H]1CCC(=O)N1CCc1ccc(C(=O)O)cc1 (mixture of isomers) [Example 8C, 4-(2-((2R)-2-((3S,4R/S,E)-3-hydroxy-4-methyloct-1-en-6-yn-1-yl)-5-oxopyrrolidin-1-yl)ethyl)benzoic acid]	0.19 nM	120 nM	–	1.3 nM	0.47 nM	–	–	–
CC#CC[C@H](C)[C@H](O)/C=C/[C@H]1CCC(=O)N1CCCCCCC(=O)O [Example 1E, 7-((R)-2-((3S,4S,E)-3-hydroxy-4-methyloct-1-en-6-yn-1-yl)-5-oxopyrrolidin-1-yl)heptanoic acid]	0.57 nM	800 nM	–	3.9 nM	1.5 nM	113 to 114 °C	2.98 nM	–
CC#CC[C@@H](C)[C@H](O)/C=C/[C@H]1CCC(=O)N1CCCCCCC(=O)O [Example 1F, 7-((R)-2-((3S,4R,E)-3-hydroxy-4-methyloct-1-en-6-yn-1-yl)-5-oxopyrrolidin-1-yl)heptanoic acid]	5.79 nM	184 nM	–	18 nM	6.9 nM	100 to 101 °C	–	–
CCC#CC[C@H](C)[C@H](O)/C=C/[C@H]1CCC(=O)N1CCCCCCC(=O)O [Example 2E, 7-((R)-2-((3S,4S,E)-3-hydroxy-4-methylnon-1-en-6-yn-1-yl)-5-oxopyrrolidin-1-yl)heptanoic acid]	0.19 ± 0.07 nM	–	–	3 nM	1.1 nM	–	0.96 ± 0.46 nM	Accelerated Healing
CCC#CC[C@H](C)[C@H](O)/C=C/[C@H]1CCC(=O)N1CCc1ccc(C(=O)O)cc1 [Example 9C, 4-(2-((R)-2-((3S,4S,E)-3-hydroxy-4-methylnon-1-en-6-yn-1-yl)-5-oxopyrrolidin-1-yl)ethyl)benzoic acid]	0.02 nM	–	–	0.67 nM	0.25 nM	–	0.31 nM	–
CCC#CC[C@H](C)[C@H](O)/C=C/[C@H]1CCC(=O)N1CCCc1ccc(C(=O)O)s1 [Example 17D, 5-(3-((R)-2-((3S,4S,E)-3-hydroxy-4-methylnon-1-en-6-yn-1-yl)-5-oxopyrrolidin-1-yl)propyl)thiophene-2-carboxylic acid]	0.32 nM	5300 nM	–	6.1 nM	2.3 nM	–	1.54 nM	–
CC(CC#Cc1ccccc1)[C@H](O)/C=C/[C@H]1CCC(=O)N1CCCc1ccc(C(=O)O)s1 (stereo partly drawn) [Example 18C, 5-(3-((2R)-2-((3S,E)-3-hydroxy-4-methyl-7-phenylhept-1-en-6-yn-1-yl)-5-oxopyrrolidin-1-yl)propyl)thiophene-2-carboxylic acid]	< 0.01 nM	> 10000 nM	–	–	–	–	–	–
CC(CC#Cc1ccccc1)[C@@H](O)/C=C/[C@H]1CCC(=O)N1CCCc1ccc(C(=O)O)s1 (stereo partly drawn) [Example 18D, 5-(3-((2R)-2-((3R,E)-3-hydroxy-4-methyl-7-phenylhept-1-en-6-yn-1-yl)-5-oxopyrrolidin-1-yl)propyl)thiophene-2-carboxylic acid]	2.03 nM	> 10000 nM	–	–	–	–	–	–
